Consider two compounds from patent US8106067B2, “Indolizine derivatives and the use thereof as antidiabetics” (Merck Patent GmbH, priority 2006, dated 2012).

The target in one test is T1, SGLT1 (Homo sapiens, UniProt P13866).
T1 construct: expressed in transfected cells
T1 sequence (P13866 1-664): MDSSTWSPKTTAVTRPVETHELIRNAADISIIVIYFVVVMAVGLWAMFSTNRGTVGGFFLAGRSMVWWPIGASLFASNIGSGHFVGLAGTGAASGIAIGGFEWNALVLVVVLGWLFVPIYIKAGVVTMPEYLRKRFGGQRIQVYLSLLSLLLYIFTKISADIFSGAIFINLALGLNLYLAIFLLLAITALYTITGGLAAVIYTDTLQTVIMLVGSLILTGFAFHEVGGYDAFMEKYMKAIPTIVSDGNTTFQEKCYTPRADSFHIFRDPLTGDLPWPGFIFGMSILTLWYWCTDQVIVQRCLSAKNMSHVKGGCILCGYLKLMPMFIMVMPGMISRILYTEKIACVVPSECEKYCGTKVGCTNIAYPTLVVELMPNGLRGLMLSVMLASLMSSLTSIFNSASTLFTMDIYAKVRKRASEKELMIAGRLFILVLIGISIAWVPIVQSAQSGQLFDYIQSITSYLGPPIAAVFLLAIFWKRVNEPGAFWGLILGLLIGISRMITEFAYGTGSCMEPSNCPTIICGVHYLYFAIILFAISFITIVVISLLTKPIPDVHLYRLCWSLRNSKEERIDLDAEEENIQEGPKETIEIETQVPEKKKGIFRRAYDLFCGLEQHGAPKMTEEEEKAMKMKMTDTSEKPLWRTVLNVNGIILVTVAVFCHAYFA
Description: 14C-AMG uptake in BHK cells transfected with SGLT1 (96-well cell-based assay). The settings on record: 50 μM AMG, 37° C., 90 min. The source says: (§1) The compounds can be tested for their SGLT inhibition properties by means of BHK cells expressing SGLT1 and SGLT2. The production of the cells and the testing can be carried out as described below.
To construct the SGLT1 expression vector (KL225), the SLC5A1 gene (homologous to NM-000343) was amplified from a cDNA library using standard PCR technology and cloned over NheI/XhoI sites into the pcDNA3.1 expression vector (Invitrogen) containing neomycin as a selection marker. In this vector, transcription uses the enhancer/promoter of human cytomegalovirus.
The final vector KL225 together with an additional vector containing a dihydrofolate reductase gene as a selection marker was introduced into cells. […] After growth for 2-3 weeks, the cells were cloned (0.5 cells/well) and the clones were investigated for SGLT expression in radioactivity uptake tests. […]
(§2) BHK cells (transfected with SGLT1 or SGLT2) were seeded into 96-well microtitre plates (Cultureplates, Perkin Elmer). […] The radioactivity was counted in a Topcount microplate scintillation counter (Perkin Elmer). The non-specific uptake was determined in sodium-free assay buffer (266 mM sucrose, 2 mM KCl, 1 mM CaCl2, 1 mM MgCl2, 10 mM HEPES, 5 mM Tris, adjusted to pH 7.4 using 1 M KOH).

For the next test, the target named is T2, SGLT2 (Homo sapiens, UniProt P31639).
T2 construct: expressed in transfected cells
T2 sequence (P31639 1-672): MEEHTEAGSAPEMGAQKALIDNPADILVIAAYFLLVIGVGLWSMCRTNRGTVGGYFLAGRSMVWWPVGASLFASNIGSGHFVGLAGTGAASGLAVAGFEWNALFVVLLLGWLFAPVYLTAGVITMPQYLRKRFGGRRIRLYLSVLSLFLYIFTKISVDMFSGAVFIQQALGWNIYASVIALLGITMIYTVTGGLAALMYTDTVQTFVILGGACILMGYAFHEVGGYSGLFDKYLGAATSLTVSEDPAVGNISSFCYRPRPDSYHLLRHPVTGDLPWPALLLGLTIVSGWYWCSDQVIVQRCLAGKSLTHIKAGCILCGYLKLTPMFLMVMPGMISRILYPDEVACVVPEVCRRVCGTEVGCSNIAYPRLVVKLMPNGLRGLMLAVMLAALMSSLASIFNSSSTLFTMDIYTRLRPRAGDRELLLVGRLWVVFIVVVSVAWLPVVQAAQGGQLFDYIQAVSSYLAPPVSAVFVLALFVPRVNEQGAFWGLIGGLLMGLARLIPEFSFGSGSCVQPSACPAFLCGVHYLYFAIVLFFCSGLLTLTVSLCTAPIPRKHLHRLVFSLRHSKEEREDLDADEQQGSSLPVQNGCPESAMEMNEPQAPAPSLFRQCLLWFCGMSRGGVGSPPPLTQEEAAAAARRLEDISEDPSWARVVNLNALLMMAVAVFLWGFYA
The experiment in a line: 14C-AMG uptake in BHK cells transfected with SGLT2 (96-well cell-based assay). Conditions: 2 mM AMG, 37° C., 90 min.
Text: as §1
To construct the SGLT2 expression vector (KL224), the SLC5A2 gene (homologous to NM_003041) was amplified from a cDNA library using standard PCR technology and cloned over NheI/XhoI sites into PCI-neo expression vector (Promega) containing neomycin as a selection marker. In this vector, transcription uses the enhancer/promoter of human cytomegalovirus and the SV40 polyadenylation signal.
The final vector KL224 together with an additional vector containing a dihydrofolate reductase gene as a selection marker was introduced into cells. […] After growth for 2-3 weeks, the cells were cloned (0.5 cells/well) and the clones were investigated for SGLT expression in radioactivity uptake tests. […]
as §2

`Cc1cccc(C)c1Nc1c(-c2ccccc2OCC(N)=O)c(C#N)c2ccccn12` [Compound A2, 2-{2-[1-Cyano-3-(2,6-dimethylphenylamino)indolizin-2-yl]phenoxy}acetamide]: the IC50 (usually the concentration that inhibits the measured activity by half) against SGLT1 is 1000 to 10000 nM; against SGLT2, 10 to 1000 nM.
On the same counts, the results for `COc1cccc(OCC(N)=O)c1-c1c(C#N)c2ccccn2c1Nc1c(C)cccc1C` [Compound A1, 2-{2-[1-cyano-3-(2,6-dimethylphenylamino)indolizin-2-yl]-3-methoxyphenoxy}acetamide] are 1000 to 10000 nM and 10 to 1000 nM.
